{"source": "paper PMC3996151", "about": "“Safety and pharmacological characterization of the molecular tweezer CLR01 – a broad-spectrum inhibitor of amyloid proteins’ toxicity” (BMC Pharmacology & Toxicology, 2014)", "key": {"cytochrome P450 system": {"system": "cytochrome P450 system", "design": "method as in PMID 23183235", "conditions": "up to 10-μM, compared to rifampicin positive control; cited from earlier work"}, "[1]": {"target": "alcohol dehydrogenase (ADH)", "design": "method as in PMID 18605724", "conditions": "ADH concentration of 208 nM; cited from earlier work"}, "[2]": {"assay": "Plasma concentration by LC-MS after SC, IV or oral administration", "format": "in vivo, mouse", "experimental": "For studies of plasma concentration, CLR01 was administered by either SC or intravenous (IV) injection at 1 mg/kg, or by oral gavage at 10 mg/kg, and plasma was collected at time points between 0.33 - 24 h. Three mice were used per time point. The concentration of CLR01 in plasma was determined by Wolfe Laboratories Inc. (Watertown, MA) using liquid chromatography-mass spectrometry (LC-MS) by interpolation of sample peak area data into the calibration curve."}, "porcine brain tubulin": {"target": "T1, porcine brain tubulin (Sus scrofa, UniProt P02550+P02554)", "T1 construct": "porcine brain tubulin; purchased Cytoskeleton, Inc., Denver, Colorado; host or cells: porcine brain (tissue-purified)", "T1 sequence (P02550 whole entry)": "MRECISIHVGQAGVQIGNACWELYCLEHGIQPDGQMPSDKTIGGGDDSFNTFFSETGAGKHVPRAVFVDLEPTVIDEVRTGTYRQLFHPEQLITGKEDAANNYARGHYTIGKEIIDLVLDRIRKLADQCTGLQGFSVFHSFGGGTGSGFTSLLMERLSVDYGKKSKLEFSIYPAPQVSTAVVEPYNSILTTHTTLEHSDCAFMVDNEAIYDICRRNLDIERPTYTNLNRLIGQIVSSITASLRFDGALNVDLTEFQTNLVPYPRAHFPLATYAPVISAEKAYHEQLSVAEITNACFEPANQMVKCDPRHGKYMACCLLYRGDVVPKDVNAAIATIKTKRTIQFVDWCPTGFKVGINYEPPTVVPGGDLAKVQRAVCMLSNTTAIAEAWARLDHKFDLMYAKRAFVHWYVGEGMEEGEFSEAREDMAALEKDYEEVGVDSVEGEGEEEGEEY", "T1 sequence (P02554 whole entry)": "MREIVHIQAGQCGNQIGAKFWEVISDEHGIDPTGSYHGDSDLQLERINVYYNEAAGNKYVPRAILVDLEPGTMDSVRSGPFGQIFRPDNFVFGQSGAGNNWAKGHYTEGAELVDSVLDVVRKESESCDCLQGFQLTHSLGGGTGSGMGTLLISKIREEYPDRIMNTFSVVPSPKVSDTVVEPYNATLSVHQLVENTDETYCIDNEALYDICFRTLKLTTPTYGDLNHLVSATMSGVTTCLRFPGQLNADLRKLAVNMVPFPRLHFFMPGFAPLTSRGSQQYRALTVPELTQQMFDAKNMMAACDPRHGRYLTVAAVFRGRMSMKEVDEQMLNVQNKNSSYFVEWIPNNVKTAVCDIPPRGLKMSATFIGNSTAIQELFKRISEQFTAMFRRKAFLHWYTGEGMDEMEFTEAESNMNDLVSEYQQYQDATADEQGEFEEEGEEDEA", "assay": "Inhibition of tubulin polymerization (turbidity, absorbance at 340 nm)", "format": "biochemical", "experimental": "The effect of CLR01 on tubulin polymerization was analyzed using a commercial kit (Cytoskeleton, Inc., Denver, Colorado). Three mg/ml porcine brain tubulin (~18 μM) were allowed to polymerize at 37 °C in the absence or presence of CLR01 concentrations ranging from 10–1,000 μM. The turbidity of the solution was measured as absorbance at λ = 340 nm using a Synergy HT microplate reader (BioTek, Winooski, VT). The data are an average of three independent experiments with two wells per condition.\nAs stated above, the mechanism by which CLR01 remodels the assembly of amyloidogenic proteins into non-toxic assemblies that can be degraded by normal clearance mechanisms is by its specific binding to Lys residues. The mechanism is “process-specific” because it is postulated to affect only the aberrant assembly of proteins that leads to toxic oligomers and aggregates, but not normal protein structure, function, or assembly as happens, e.g., in tubulin polymerization. To test whether this indeed is the case, we examined the effect of CLR01 on tubulin polymerization. Three mg/ml (~18 μM) porcine brain tubulin, which contains 3.8% Lys and 4.8% Arg, was allowed to polymerize in the absence or presence of CLR01 concentrations ranging from 10–1,000 μM."}, "[3]": {"design": "method as in PMID 21916458, PMID 16218636", "conditions": "cited from earlier work"}, "[4]": {"assay": "Blood-brain barrier permeability with 3H-CLR01 IV (scintillation counting of blood and brain)", "format": "in vivo, mouse", "conditions": "for Blood radioactivity levels, % of the injected levels: 0.5 h following IV injection; for Brain radioactivity after double injection compared to one injection: two 11.86-μg/g injections", "experimental": "The following groups of mice were used for CLR01 BBB penetration studies: 3×Tg and the corresponding WT mice at 2-m, 12-m, and 22 - 24-m (hereafter referred to as 22-m) of age. The groups were: 2-m WT, 2-m Tg, 12-m WT, 12-m Tg, 22-m WT, 22-m Tg. Mice were administered ^3H-CLR01 intravenously. Two μCi per gram of mouse body weight, which are equal to 11.86 μg/g of CLR01 in which ^3H-CLR01 made up 10% of the total CLR01, were injected into the jugular vein. Blood and brain were collected at 0.5, 1, 3, 8, 24, or 72 h (not all time points were collected for all groups, see the Results section). For times ≤ 3 h, mice were anesthetized by IP injection of ketamine and xylazine. The mice remained anesthetized following the injection until the specified time point, at which point they were given a lethal dose of pentobarbital. Then, blood was collected via a cardiac puncture, and the brain harvested with or without a perfusion step Pharmacokinetics of CLR01 in vivo. For time points 8–72 h, mice were not anesthetized and ^3H-CLR01 was injected into the tail vein. This change was due to the difficulty of keeping mice anesthetized for longer than 3 h. No differences were observed between mice given anesthesia and jugular vein injections and mice receiving tail vein injections.\nEuthanasia procedures were the same as described above. For all mice, one hemisphere of the brain and 100–350 μl of blood were separately digested following instructions from Perkin-Elmer (document: Scintillation Cocktails and Consumables) with 1 ml Solvable (Perkin-Elmer, Waltham, MA), added to Ultima Gold Liquid Scintillation Cocktail (Perkin-Elmer) and read in a Triathler Liquid Scintillation Counter model 425–034, (Hidex, Turku, Finland). Brain permeability percentage was calculated as counts per minute (CPM) per g of brain relative to CPM per ml of blood. The data are an average of values from three mice per genotype/age/time combination.\nFor CLR01 transport-saturation studies using 5× the CLR01 dose, ^3H-CLR01 was kept at 10% of the total CLR01 mixture and a total of 59.3 μg of CLR01 (10 μCi) per g of mouse body weight was injected IV (22-m WT 5× dose). For CLR01 brain-accumulation studies, two 11.86-μg/g injections were administered at equal time intervals (22-m WT 2× inj). In these experiments, mice were injected at time = 0 and at t = ½ of euthanasia time. For example, in the original, single-injection experiments, a mouse would receive an injection at t = 0 and then be euthanized at t = 1 h. In this experiment, a mouse received one injection at t = 0, a second injection at t = 0.5 h, and then was euthanized at t = 1 h.\nIn experiments using ^3H-CLR01, urine was collected when possible over the period between injection and euthanasia. […] We could not normalize the radioactivity because the amount of urine in the bladder prior to injection and the volume produced during the experiment could not be calculated.\nTo correct for the radioactivity associated with blood-borne ^3H-CLR01 in the brain vasculature, we performed both perfusion and subtraction analyses. In perfusion experiments, WT and 3×Tg mice at each of the three ages analyzed (n = 3 per group) were perfused with phosphate buffered saline following euthanasia. Perfusion lasted for either 5 min or until the liver changed color from a red to yellow, whichever was longer. In other experiments, mice were not perfused, but radioactivity associated with 10 μl of blood per g of brain [29, 30] was calculated based on brain weight and blood radioactivity levels and subtracted from brain radioactivity levels. At 1 h post injection, perfusion-corrected brain values were statistically similar to subtraction-corrected brain values (Figure 5). […]"}}, "note": "Where “and” joins values, the source holds several entries; their conditions need not be identical. Identical values can stand only once.", "data": [{"smiles": "O=P(O)(O)Oc1c2c(c(OP(=O)(O)O)c3c1C1CC3c3cc4c(cc31)C1CC4c3ccccc31)C1CC2c2cc3c(cc21)C1CC3c2ccccc21", "note": "[CLR01]", "values": [{"measurement": "Activation of the cytochrome P450 system", "setting": "cytochrome P450 system", "result": "Minimal activation"}, {"measurement": "IC50", "setting": "[1]", "result": 180, "unit": "µM"}, {"measurement": "SC bioavailability", "setting": "[2]; 1 mg/kg SC vs IV, 2-m old WT mice", "result": "identical, within experimental error, to the IV administration"}, {"measurement": "Administered dose detected in the blood at the earliest time point", "setting": "[2]; 20 min, SC or IV 1 mg/kg", "result": "~ 30%"}, {"measurement": "Initial CLR01 levels found in the plasma", "setting": "[2]; 8 h following SC or IV administration", "result": "Approximately 5%"}, {"measurement": "half-life", "setting": "[2]; mouse, plasma, subcutaneous, SC or IV 1 mg/kg", "result": "~2.5", "unit": "h"}, {"measurement": "Oral bioavailability", "setting": "[2]; oral gavage 10 mg/kg", "result": "negligible"}, {"measurement": "Concentration ratio for disruption of tubulin polymerization relative to ratios needed for inhibition of aggregation of amyloidogenic proteins", "setting": "porcine brain tubulin", "result": "20–50 times higher"}, {"measurement": "Absorbance observed immediately (λ = 340 nm)", "setting": "porcine brain tubulin; 1,000 μM CLR01, 0.05-0.09 without or with up to 300 μM", "result": 0.15, "unit": "absorbance units"}, {"measurement": "Concentrations that did not significantly affect the polymerization of tubulin", "setting": "porcine brain tubulin; 3 mg/ml (~18 μM) tubulin, 37 °C", "result": "up to 300 μM"}, {"measurement": "Concentration at which significant modulation of tubulin polymerization was observed", "setting": "porcine brain tubulin; 3 mg/ml (~18 μM) tubulin, 37 °C, CLR01 tested at 10–1,000 μM", "result": "1,000 μM"}, {"measurement": "Affinity for Lys residues", "setting": "[3]", "result": "low micromolar affinity"}, {"measurement": "Brain radioactivity levels over time", "setting": "[4]; 0.5 - 72 h post-injection, IV", "result": "did not change significantly up to 72 h post-injection"}, {"measurement": "Brain penetration, % of blood", "setting": "[4]; 1× CLR01 dose, 1 h, 22-m old WT mice", "result": "0.86 ± 0.30", "unit": "%"}, {"measurement": "Brain penetration, % of blood", "setting": "[4]; 5× CLR01 dose (59.3 μg/g), 1 h, 22-m old WT mice", "result": "0.97 ± 0.28", "unit": "%"}, {"measurement": "Absolute amount of radioactivity in the brain relative to 1× dose", "setting": "[4]; 5× CLR01 dose, 22-m old WT mice, on average", "result": 5, "unit": "times"}, {"measurement": "Blood radioactivity levels, % of the injected levels", "setting": "[4]; 12-m old 3×Tg mice", "result": "40 ± 6", "unit": "%"}, {"measurement": "Blood radioactivity levels, % of the injected levels", "setting": "[4]; 12-m old WT mice", "result": "39 ± 13", "unit": "%"}, {"measurement": "Brain radioactivity after double injection compared to one injection", "setting": "[4]; 1 h, 22-m old WT mice", "result": 3.3, "unit": "×"}, {"measurement": "Brain-radioactivity levels as a percentage of blood-radioactivity levels (CPM/g)/(CPM/ml)", "setting": "[4]; 1 h following IV injection, 2-m old 3×Tg mice", "result": "3.09 ± 0.55", "unit": "%"}, {"measurement": "Brain-radioactivity levels as a percentage of blood-radioactivity levels (CPM/g)/(CPM/ml)", "setting": "[4]; 1 h following IV injection, 2-m old WT mice", "result": "2.68 ± 0.31", "unit": "%"}, {"measurement": "Brain-radioactivity levels as a percentage of blood-radioactivity levels (CPM/g)/(CPM/ml)", "setting": "[4]; 1 h following IV injection, 12-m old 3×Tg mice", "result": "1.43 ± 0.17", "unit": "%"}, {"measurement": "Brain-radioactivity levels as a percentage of blood-radioactivity levels (CPM/g)/(CPM/ml)", "setting": "[4]; 1 h following IV injection, 12-m old WT mice", "result": "2.11 ± 0.69", "unit": "%"}, {"measurement": "Brain-radioactivity levels as a percentage of blood-radioactivity levels (CPM/g)/(CPM/ml)", "setting": "[4]; 1 h following IV injection, 24-m old 3×Tg mice", "result": "1.45 ± 0.28", "unit": "%"}, {"measurement": "Brain-radioactivity levels as a percentage of blood-radioactivity levels (CPM/g)/(CPM/ml)", "setting": "[4]; 1 h following IV injection, 24-m old WT mice", "result": "0.86 ± 0.17", "unit": "%"}, {"measurement": "Brain-radioactivity levels as a percentage of blood-radioactivity levels, over all groups", "setting": "[4]; 1 h following IV injection, depending on age and genotype (WT versus 3×Tg)", "result": "0.86–3.09% and 1 - 3% and ~ 2%"}, {"measurement": "Brain radioactivity after double injection compared to one injection", "setting": "[4]; 3 h, 22-m old WT mice", "result": 1.6, "unit": "×"}, {"measurement": "Brain radioactivity after double injection compared to one injection", "setting": "[4]; 8 h, 22-m old WT mice", "result": 1.9, "unit": "×"}, {"measurement": "Radioactivity observed at 0.5 h remaining in the blood", "setting": "[4]; after 8 h, IV", "result": "5 - 10%"}, {"measurement": "Brain CLR01 radioactivity levels per g of brain, most group × time combinations", "setting": "[4]; single IV injection 11.86 μg/g", "result": "10,000 - 20,000 CPM/g"}, {"measurement": "Route of excretion (urine radioactivity, qualitative)", "setting": "[4]; urine collected between injection and euthanasia", "result": "excreted through the urine"}]}]}
